This data set is described as follows: Research of base addition salts of Compound A (solubility observation). The class given is physicochemical. Conditions: water / organic solvent, in words. As for the experimental part: A research was carried out on salt formation with sodium and magnesium, among inorganic bases. Specifically, Compound A was dissolved in an appropriate solvent, and each kind of the bases was added thereto (from 0.5 to 1.5 equivalent), and stirring was carried out for overnight, to thereby determine whether or not a salt formation occurred. As a result, in salt formation with sodium, decomposition remarkably proceeded, and therefore, the research was suspended. From the case of magnesium, hemi magnesium salt of Compound A was obtained (Reference Example 6).

The text below walks through data of patent US10280174B2, “Salt of fused pyrimidine compound and crystal thereof” (TAIHO PHARMACEUTICAL CO., LTD., priority 2015, dated 2019).

`C=CC(=O)N1CCC[C@@H](n2nc(C(=O)Nc3nc4ccccc4o3)c3c(N)ncnc32)C1.C=CC(=O)N1CCC[C@@H](n2nc(C(=O)Nc3nc4ccccc4o3)c3c(N)ncnc32)C1.[Mg]` [hemi magnesium salt of Compound A, (R)-1-(1-acryloylpiperidin-3-yl)-4-amino-N-(benzo[d]oxazol-2-yl)-1H-pyrazolo[3,4-d]pyrimidine-3-carboxamide.hemi magnesium salt]: the solubility result was “low solubility to water and to an organic solvent”.
